Experimental data reported in patent US20240336601A1 (Chulalongkorn University, priority 2020, published 2024).

Experiments:
PD-1/PD-L1 interaction = target: T1, PD-1/PD-L1 interaction (Homo sapiens, UniProt Q9NZQ7); assay: PD-1/PD-L1 blockage cell-based bioassay (Jurkat NFAT luciferase / CHO-PDL1 co-culture); conditions: Jurkat NFAT cells co-cultured with CHO-PDL1 cells, 6 h, luminescence
T1 construct: expressed in transfected cells

[1] = target: interaction between PD-1 and PD-L1 (Homo sapiens, UniProt Q9NZQ7); assay: PD-1/PD-L1 protein-protein interaction assay (ALPHA); assay type: binding; conditions: 2 nM His-tagged human PD-L1, 0.6 nM PD-1-Fc, AlphaScreen
Chain of interaction between PD-1 and PD-L1 (Q9NZQ7 19-238 limits assumed): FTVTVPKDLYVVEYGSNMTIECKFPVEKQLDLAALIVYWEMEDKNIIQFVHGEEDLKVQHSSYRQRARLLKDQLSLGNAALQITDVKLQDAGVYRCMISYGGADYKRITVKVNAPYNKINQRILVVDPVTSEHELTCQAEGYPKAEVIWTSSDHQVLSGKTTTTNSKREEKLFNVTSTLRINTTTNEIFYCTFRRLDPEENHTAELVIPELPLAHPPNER

T1 sequence (Q9NZQ7 19-290): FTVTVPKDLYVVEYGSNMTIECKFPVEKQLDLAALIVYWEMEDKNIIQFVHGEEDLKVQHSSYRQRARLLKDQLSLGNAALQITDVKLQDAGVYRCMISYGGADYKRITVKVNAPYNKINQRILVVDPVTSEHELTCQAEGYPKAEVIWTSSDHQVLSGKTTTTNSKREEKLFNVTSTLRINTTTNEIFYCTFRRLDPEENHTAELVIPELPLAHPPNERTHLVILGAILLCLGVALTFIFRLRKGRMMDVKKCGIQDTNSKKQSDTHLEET

Structure (SMILES) | IC50 (PD-1/PD-L1 interaction) [nM] | IC50 [1] [nM]
COc1cc(-n2ccc3c(-c4cccc(-c5ccc(CN6CC(C)(O)C6)c(OC)n5)c4Cl)cccc32)cc(OC)c1CN1CC(C)(O)C1 [Example 28] | > 2000 | 1 to 10
COc1cc(-n2ccc3c(-c4cccc(-c5ccc(CNC[C@@H]6CCC(=O)N6)c(OC)n5)c4Cl)cccc32)cc(OC)c1CN1CC[C@H](O)C1 [Example 83, (S)-5-((((6-(2-chloro-3-(1-(4-(((S)-3-hydroxypyrrolidin-1-yl)methyl)-3,5-dimethoxyphenyl)-1H-indol-4-yl)phenyl)-2-methoxypyridin-3-yl)methyl)amino)methyl)pyrrolidin-2-one] | 201 to 2000 | 1 to 10
COc1cc(-n2ncc3c(-c4cccc(-c5ccc(CN6CC(C)(C(N)=O)C6)c(OC)n5)c4Cl)cccc32)cc(OC)c1CN1CC(C)(O)C1 [Example 104, 1-((6-(2-chloro-3-(1-(4-((3-hydroxy-3-methylazetidin-1-yl)methyl)-3,5-dimethoxyphenyl)-1H-indazol-4-yl)phenyl)-2-methoxypyridin-3-yl)methyl)-3-methylazetidine-3-carboxamide] | 201 to 2000 | 1 to 10
COc1cc(N2CCc3c(-c4cccc(-c5nc6c(s5)CNCC6)c4C)cccc32)cc(OC)c1CNC[C@@H]1CCC(=O)N1 [Example 85, (S)-5-(((2,6-dimethoxy-4-(4-(2-methyl-3-(4,5,6,7-tetrahydrothiazolo[5,4-c]pyridin-2-yl)phenyl)indolin-1-yl)benzyl)amino)methyl)pyrrolidin-2-one] | > 2000 | 10 to 100
COc1cc(-n2ccc3c(-c4ccc5c(c4)OCCO5)cccc32)cnc1CNC[C@@H]1CCC(=O)N1 [Example 61, (S)-5-((((5-(4-(2,3-dihydrobenzo[b][1,4]dioxin-6-yl)-1H-indol-1-yl)-3-methoxypyridin-2-yl)methyl)amino)methyl)pyrrolidin-2-one] |  | > 100
Cn1cc(-n2ccc3c(-c4ccc5c(c4)OCCO5)cccc32)c2ncc(CNCC(C)(C)C(=O)O)cc21 [Example 25] |  | > 100
COc1cc(-n2ccc3c(-c4ccc5c(c4)OCCO5)cccc32)cc(OC)c1CNCCNC(C)=O [Example 3, N-(2-((4-(4-(2,3-dihydrobenzo[b][1,4]dioxin-6-yl)-1H-indol-1-yl)-2,6-dimethoxybenzyl)amino)ethyl)acetamide] |  | > 100
COc1nc(-n2ccc3c(-c4ccc5c(c4)OCCO5)cccc32)ccc1CN1CC2(C1)CN(C(C)=O)C2 [Example 58, 1-(6-((6-(4-(2,3-dihydrobenzo[b][1,4]dioxin-6-yl)-1H-indol-1-yl)-2-methoxypyridin-3-yl)methyl)-2,6-diazaspiro[3.3]heptan-2-yl)ethanone] |  | > 100
COc1nc(-n2ccc3c(-c4ccc5c(c4)OCCO5)cccc32)cnc1CNC[C@@H]1CCC(=O)N1 [Example 60] |  | > 100
COc1cc(-c2c[nH]c3c(-c4ccc5c(c4)OCCO5)cccc23)cc(OC)c1CNC[C@@H]1CCC(=O)N1 [Example 24] |  | > 100
COc1cc(-n2ccc3c(-c4cccc(NC(=O)c5ccc(CNC(C)(CO)C(=O)O)cc5)c4C)cccc32)cc(OC)c1CNC(C)(CO)C(=O)O (stereo not shown) [Example 56, 2-((4-((3-(1-(4-(((2-carboxy-1-hydroxypropan-2-yl)amino)methyl)-3,5-dimethoxyphenyl)-1H-indol-4-yl)-2-methylphenyl)carbamoyl)benzyl)amino)-3-hydroxy-2-methylpropanoic acid] |  | > 100
Cc1cc(CN2CC(C)(C(=O)O)C2)cc(-n2ccc3c(-c4ccc5c(c4)OCCO5)cccc32)n1 [Example 86, 1-((2-(4-(2,3-dihydrobenzo[b][1,4]dioxin-6-yl)-1H-indol-1-yl)-6-methylpyridin-4-yl)methyl)-3-methylazetidine-3-carboxylic acid] |  | > 100
COc1cc(-c2cn(C)c3c(-c4ccc5c(c4)OCCO5)cccc23)cc(OC)c1CNC[C@@H]1CCC(=O)N1 [Example 23] |  | 10 to 100

The next lines start with the values.

IC50 (PD-1/PD-L1 interaction) [nM] | IC50 [1] [nM] | Structure (SMILES)
< 200 | < 1 | COc1cc(-n2ncc3c(-c4cccc(-c5ccc(CN[C@H]6C[C@@H](O)C6)c(OC)n5)c4Cl)cccc32)cc(OC)c1CN[C@H]1C[C@@H](O)C1 [Example 101, cis-3-(((6-(2-chloro-3-(1-(4-(((cis-3-hydroxycyclobutyl)amino)methyl)-3,5-dimethoxyphenyl)-1H-indazol-4-yl)phenyl)-2-methoxypyridin-3-yl)methyl)amino)cylobutanol]
< 200 | < 1 | COc1cc(-n2ncc3c(-c4cccc(-c5ccc(CN6CC7(CNC(=O)C7)C6)c(OC)n5)c4F)cccc32)cc(OC)c1CNC[C@@H]1CCC(=O)N1 [Example 135, (S)-2-((6-(2-fluoro-3-(1-(3,5-dimethoxy-4-((((5-oxopyrrolidin-2-yl)methyl)amino)methyl)phenyl)-1H-indazol-4-yl)phenyl)-2-methoxypyridin-3-yl)methyl)-2,6-diazaspiro[3.4]octan-7-one]
201 to 2000 | < 1 | COc1cc(-n2ncc3c(-c4cccc(-c5ccc(CN[C@H]6C[C@@H](O)C6)c(OC)n5)c4Cl)cccc32)ncc1CN[C@H](CO)C(=O)O [Example 120, ((6-(4-(2-chloro-3-(5-(((cis-3-hydroxycyclobutyl)amino)methyl)-6-methoxypyridin-2-yl)phenyl)-1H-indazol-1-yl)-4-methoxypyridin-3-yl)methyl)-D-serine]
< 200 | < 1 | COc1cc(-n2ncc3c(-c4cccc(-c5ccc(CN[C@H]6C[C@@H](O)C6)c(OC)n5)c4Cl)cccc32)cc(OC)c1CNC[C@@H](C)O [Example 113, cis-3-(((6-(2-chloro-3-(1-(4-((((R)-2-hydroxypropyl)amino)methyl)-3,5-dimethoxyphenyl)-1H-indazol-4-yl)phenyl)-2-methoxypyridin-3-yl)methyl)amino)cyclobutan-1-ol]
> 2000 | 1 to 10 | COc1cc(-n2ccc3c(-c4cccc(-c5ccc(CN6CC7(C6)CN(C(C)=O)C7)c(OC)n5)c4Cl)cccc32)cc(OC)c1CNC[C@@H]1CCC(=O)N1 [Example 32]
201 to 2000 | < 1 | COc1cc(-n2ncc3c(-c4cccc(-c5ccc(CN[C@H]6C[C@@H](O)C6)c(OC)n5)c4Cl)cccc32)cc(OC)c1CN[C@@H](CO)C(N)=O [Example 121, (S)-2-((4-(4-(2-chloro-3-(5-(((cis-3-hydroxycyclobutyl)amino)methyl)-6-methoxypyridin-2-yl)phenyl)-1H-indazol-1-yl)-2,6-dimethoxybenzyl)amino)-3-hydroxypropanamide]
< 200 | < 1 | COc1cc(-n2ncc3c(-c4cccc(-c5nc6cc(CN7CC[C@@H](C(=O)O)C7)cc(C#N)c6o5)c4C)cccc32)cc(OC)c1CN1CC[C@@H](O)C1 [Example 154, (R)-1-((7-cyano-2-(3-(1-(4-(((R)-3-hydroxypyrrolidin-1-yl)methyl)-3,5-dimethoxyphenyl)-1H-indazol-4-yl)-2-methylphenyl)benzo[d]oxazol-5-yl)methyl)pyrrolidine-3-carboxylic acid]
< 200 | < 1 | COc1cc(-c2cccc(-c3cccc4c3cnn4-c3cc(OC)c(CN4CC5(CNC(=O)C5)C4)c(OC)c3)c2Cl)cc(F)c1CN(C)C12CCC(C(=O)O)(CC1)CC2 [Example 160, 4-(((2′-chloro-3′-(1-(3,5-dimethoxy-4-((7-oxo-2,6-diazaspiro[3.4]octan-2-yl)methyl)phenyl)-1H-indazol-4-yl)-3-fluoro-5-methoxy-[1,1′-biphenyl]-4-yl)methyl)(methyl)amino)bicyclo[2.2.2]octane-1-carboxylic acid]
201 to 2000 | 1 to 10 | COc1cc(-n2ccc3c(-c4cccc(-c5cnc(CNC[C@@H]6CCC(=O)N6)c(OC)n5)c4Cl)cccc32)cc(OC)c1CNC[C@@H]1CCC(=O)N1 [Example 65, (S)-5-((((5-(2-chloro-3-(1-(3,5-dimethoxy-4-(((((S)-5-oxopyrrolidin-2-yl)methyl)amino)methyl)phenyl)-1H-indol-4-yl)phenyl)-3-methoxypyrazin-2-yl)methyl)amino)methyl)pyrrolidin-2-one]
201 to 2000 | < 1 | COc1cc(-n2ncc3c(-c4cccc(-c5ccc(CN[C@H]6C[C@@H](O)C6)c(OC)n5)c4Cl)cccc32)ncc1CN1CC(C)(O)C1 [Example 124, 1-((6-(4-(2-chloro-(5-(((cis-3-hydroxycyclobutyl)amino)methyl)-6-methoxypyridin-2-yl)phenyl)-1H-indazol-1-yl)-4-methoxypyridin-3-yl)methyl)-3-methylazetidin-3-ol]
> 2000 | 1 to 10 | COc1cc(-c2cn(C)c3c(-c4cccc(-c5ccc(CNC[C@@H]6CCC(=O)N6)c(OC)n5)c4Cl)cccc23)cc(OC)c1CNC[C@@H]1CCC(=O)N1 [Example 93, (S)-5-((((6-(2-chloro-3-(3-(3,5-dimethoxy-4-(((((S)-5-oxopyrrolidin-2-yl)methyl)amino)methyl)phenyl)-1-methyl-1H-indol-7-yl)phenyl)-2-methoxypyridin-3-yl)methyl)amino)methyl)pyrrolidin-2-one]
< 200 | < 1 | COc1cc(-n2ncc3c(-c4cccc(-c5ccc(CNCCO)c(OC)n5)c4Cl)cccc32)cc(OC)c1CNCCO [Example 129, 2-(((6-(2-chloro-3-(1-(4-(((2-hydroxyethyl)amino)methyl)-3,5-dimethoxyphenyl)-1H-indazol-4-yl)phenyl)-2-methoxypyridin-3-yl)methyl)amino)ethanol]
< 200 | < 1 | COc1cc(-n2ncc3c(-c4cccc(-c5ccc(CN[C@H]6C[C@@H](O)C6)c(OC)n5)c4Cl)cccc32)cc(OC)c1CNCCO [Example 125, cis-3-(((6-(2-chloro-3-(1-(4-(((2-hydroxyethyl)amino)methyl)-3,5-dimethoxyphenyl)-1H-indazol-4-yl)phenyl)-2-methoxypyridin-3-yl)methyl)amino)cyclobutanol]
